US5696277A, “Antiviral prodrugs” (Hostetler; Karl Y., priority 1994, dated 1997)
Like-named read-outs stand apart in the source and are kept apart here.

Assays:
human cytomegalovirus = test: CMV antiviral susceptibility assay: HCMV DNA by nucleic acid hybridization in infected MRC-5 cells (Tables I and II); assay type: cell-based; settings: for fold increase in activity / times the activity of PAA: HCMV; for IC50: HCMV-infected MRC-5 cells, HCMV DNA after five days, mean ± S.D. (n)
Protocol: Phosphonoacid derivatives having structures according to formula I were tested for antiviral activity in human embryonic lung fibroblasts (MRC-5) or in human epithelioid cervical carcinoma cells (HeLa) expressing the CD4 receptor (HT4-6C). HCMV (strain AD-169) and HSV-1 (wild type) were used to infect MRC-5 cells and HCMV or HSV-specific DNA was measured by DNA-probe methods (HybriwixTM, Diagnostic Hybrids, Inc., Athens, Ohio) according to the manufacturer's instructions. HIV replication was accessed in HIV-1 infected HT4-6C cells using a plaque reduction assay ([…]. et al. (1990) Antimicrobial Agents Chemother. 34:436). Subconfluent MRC-5 cells in 24-well culture dishes were pretreated for 24 hours with various concentrations of drug in MEM medium containing 2% FBS and antibiotics. The media was removed and virus added at a dilution that will result in a 3-4+ cytopathic effect (CPE) in the no-drug wells in five days. This was absorbed for 1 hour at 37° C., aspirated and replaced with the drug dilutions. After five days of incubation HCMV DNA was quantified in triplicate by nucleic acid hybridization using a CMV Antiviral Susceptibility Test Kit from Diagnostic Hybrids, Inc. (Athens, Ohio). The media was removed and cells lysed according to the manufacturer's instructions. After absorption of the lysate, the HybriwixTM filters were hybridized overnight at 60° C. The HybriwixTM were washed for 30 minutes at 73° C. and counted in a gamma counter. The results are expressed as a percentage of the untreated HCMV-infected control cells.

in vitro = assay type: cell-based, human; settings: human, mrc-5 cells
Protocol: (§1) The cytotoxicity of B-PFA and B-PAA in subconfluent MRC-5 cells was assessed by trypan blue exclusion.

MRC-5 cells = test: in vitro; assay type: cell-based, human
Protocol: as §1

[1] = tested on: human herpes simplex virus 1; test: HSV antiviral susceptibility assay: HSV DNA by nucleic acid hybridization in infected MRC-5 cells (Table III); assay type: cell-based; settings: for times more active than PFA / fold increase in activity: HSV-1; for fold increase in activity: versus PFA
Protocol: (§2) Phosphonoacid derivatives having structures according to formula I were tested for antiviral activity in human embryonic lung fibroblasts (MRC-5) or in human epithelioid cervical carcinoma cells (HeLa) expressing the CD4 receptor (HT4-6C). HCMV (strain AD-169) and HSV-1 (wild type) were used to infect MRC-5 cells and HCMV or HSV-specific DNA was measured by DNA-probe methods (Hybriwix™, Diagnostic Hybrids, Inc., Athens, Ohio) according to the manufacturer's instructions. HIV replication was accessed in HIV-1 infected HT4-6C cells using a plaque reduction assay (Larder, B. et al. (1990) Antimicrobial Agents Chemother. 34:436).
Subconfluent MRC-5 cells in 24-well culture dishes were inoculated by removing the media and adding HSV-1 virus at a dilution that will result in a 3-4+ CPE in the no-drug well in 20-24 hours. This was absorbed for 1 hour at 37° C., aspirated and replaced with various concentrations of drugs in MEM medium containing 2% FBS and antibiotics. After approximately 24 hours of incubation, HSV DNA was quantified in triplicate by nucleic acid hybridization using a HSV Antiviral Susceptibility Test Kit from Diagnostic Hybrids, Inc. (Athens, Ohio). The media was removed and cells lysed according to the manufacturer's instructions. After absorption of the lysate, the Hybriwix™ filters were hybridized overnight at […] The Hybriwix™ were washed for 30 minutes at 73° C. and counted in a gamma counter. The results are expressed as a percentage of the untreated HSV-infected control cells.

[2] = tested on: human immunodeficiency virus-1; test: HIV-1 plaque reduction assay in HT4-6C cells (Table IV); assay type: cell-based, HIV-1 in CD4-expressing human HeLa cells (HT4-6C); settings: for fold increase in activity: HIV-1, versus PFA; for IC50: Human immunodeficiency virus 1, 72 h, HIV-1 plaque reduction in HT4-6C cells, 3 days, mean ± S.D. (n)
Protocol: as §2
HT4-6C cells and plaque reduction assay, CD4-expressing HeLa cells, HT4-6C cells (Chesebro, B. and K. Wehrly (1988) J. Virology 62:3779-3788), were obtained from Bruce Chesebro, Hamilton, Mont. The effect of antiviral compounds on HIV replication was measured by a plaque reduction assay. Briefly, monolayers of HT4-6C cells were infected with 100 to 300 PFU of virus per well in 24-well microdilution plates. Various concentrations of drug were added to the culture medium, Dulbecco's Modified Eagle Medium containing 5% fetal bovine serum and antibiotics, as noted above. After 3 days at 37° C., the monolayers were fixed with 10% formaldehyde solution in phosphate-buffered saline and stained with 0.25% crystal violet to visualize virus plaques (Larder, B. et al. (1989) Science 243:1731-1734). Antiviral activity was assessed as the percentage of control plaques measured in drug-treated samples.

[3] = tested on: reverse transcriptase of human immunodeficiency virus (HIV); settings: cited from earlier work
[4] = in vivo; cited from earlier work
[5] = tested on: DNA polymerase of many viruses, including human cytomegalovirus (HCMV), herpes simplex virus (HSV); settings: HSV and many other viruses; cited from earlier work
[6] = phosphonoacetate series, versus PAA
[7] = Human betaherpesvirus 5, MRC5, 120 h
[8] = phosphonoformate series, versus PFA
[9] = Human alphaherpesvirus 1, MRC5, HSV-1-infected MRC-5 cells, approximately 24 hours, mean ± S.D. (n), read-out: IC50

| SMILES | fold increase in activity (human cytomegalovirus; [6]) | IC50 (human cytomegalovirus; [7]) | fold increase in activity (human cytomegalovirus; [8]) | other results |
| --- | --- | --- | --- | --- |
| CCCCCCCCCCCCCCCCCCOC[C@@H](O)COP(=O)(O)CC(=O)O [B--PAA, 1O-octadecyl-snglycero-3-phosphonoacetic acid] | 100 fold | 0.22 ± 0.08 µM |  | CC50 (in vitro): 32 to 100 µM; selectivity index (MRC-5 cells): ≥ 300 |
| CCCCCCCCCCCCCCCCCCOC[C@@H](O)COP(=O)(O)CC(=O)OCC [B--PAA--OEt, 1O-octadecyl-snglycero-3-phosphonoacetate ethyl ester] | 6.1 fold | 3.6 ± 1.5 µM |  |  |
| CCCCCCCCCCCCCCCCCCOC[C@@H](O)COP(=O)(O)C(=O)O [B--PFA, 1O-octadecyl-snglycero-3-phosphonoformic acid] |  | 0.43 ± 0.27 µM | 107 fold | times more active than PFA [1]: 43 times; fold increase in activity [1]: 43 fold; IC50 [1, 9]: 1.1 ± 1.1 µM; fold increase in activity [2]: 37 fold; IC50 [2]: 3.6 ± 1.51 µM; CC50 (in vitro): > 1000 µM; selectivity index (MRC-5 cells): ≥ 300 |
| CCCCCCCCCCCCCCCCCCOC[C@@H](O)COP(=O)(O)C(=O)OCC [B--PFA--OEt, 1O-octadecyl-snglycero-3-phosphonoformate ethyl ester] |  | 1.2 ± 0.49 µM | 38 fold |  |
| CCCCCCCCCCCCCCCCCCOC[C@H](COC(=O)CP(=O)(O)O)OCc1ccccc1 [BB--(C)--PAA, 1O-octadecyl-2-O-benzyl-snglycero-3-carboxymethylenephosphonate] | 16 fold | 1.4 ± 0.9 µM |  |  |
| CCCCCCCCCCCCCCCCCCOC[C@H](COP(=O)(O)CC(=O)O)OCc1ccccc1 [BB--PAA, 1O-octadecyl-2-O-benzyl-snglycero-3-phosphonoacetic acid] | 24 fold | 0.92 ± 0.8 µM |  |  |
| CCCCCCCCCCCCCCCCCCOC[C@H](COP(=O)(O)CC(=O)OCC)OCc1ccccc1 [BB--PAA--OEt, 1O-octadecyl-2-O-benzyl-snglycero-3-phosphonoacetate ethyl ester] | 3.1 fold | 7.2 ± 1 µM |  |  |
| CCCCCCCCCCCCCCCCCCOC[C@H](COP(=O)(O)C(=O)O)OCc1ccccc1 [BB--PFA, 1O-octadecyl-2-O-benzyl-snglycero-3-phosphonoformic acid] |  | 0.64 ± 0.65 µM | 72 fold | times more active than PFA [1]: 34 times; fold increase in activity [1]: 34 fold; IC50 [1, 9]: 1.4 ± 0.4 µM; fold increase in activity [2]: 9.0 fold; fold increase in activity ([2]; listed as BB-PFA): 9 fold; IC50 [2]: 14.8 ± 7.3 µM |
| CCCCCCCCCCCCCCCCCCOC[C@H](COP(=O)(O)C(=O)OCC)OCc1ccccc1 [BB--PFA--OEt, 1O-octadecyl-2-O-benzyl-snglycero-3-phosphonoformate ethyl ester] |  | 2.9 ± 0.97 µM | 16 fold |  |
| CCCCCCCCCCCCCC(=O)OC[C@H](COP(=O)(O)CC(=O)O)OC(=O)CCCCCCCCCCCCC [DMG--PAA, 1,2dimyristoyl-snglycero-3-phosphonoacetate] | 1.2 fold | 19 ± 6.5 µM |  | times the activity of PAA (human cytomegalovirus): 1.2 times |
| CCCCCCCCCCCCCC(=O)OC[C@H](COP(=O)(O)CC(=O)OCC)OC(=O)CCCCCCCCCCCCC [DMG--PAA--OEt, 1,2dimyristoyl-snglycero-3-phosphonoacetate ethyl ester] | 0.2 fold | 108 ± 42 µM |  |  |
| CCCCCCCCCCCCCC(=O)OC[C@H](COP(=O)(O)C(=O)O)OC(=O)CCCCCCCCCCCCC [DMG--PFA, 1,2dimyristoyl-snglycero-3-phosphonoformate] |  | 125 ± 43 µM | 0.33 fold |  |
| CCCCCCCCCCCCCC(=O)OC[C@H](COP(=O)(O)C(=O)OCC)OC(=O)CCCCCCCCCCCCC [DMG--PFA--OEt, 1,2dimyristoyl-snglycero-3-phosphonoformate ethyl ester] |  | 30 ± 18 µM | 1.53 fold |  |
| CCCCCCCCCCCCCC(=O)OC[C@H](COP(=O)(O)OP(=O)(O)CC(=O)O)OC(=O)CCCCCCCCCCCCC [DMP--PAA, 1,2dimyristoyl-snglycero-3-phospho-phosphonoacetate] | 0.2 fold |  |  | times the activity of PAA (human cytomegalovirus): 0.24 times; IC50 (human cytomegalovirus): 93 ± 92 µM |
| CCCCCCCCCCCCCC(=O)OC[C@H](COP(=O)(O)OP(=O)(O)CC(=O)OCC)OC(=O)CCCCCCCCCCCCC [DMP--PAA--OEt, 1,2dimyristoyl-snglycero-3-phospho-phosphonoacetate ethyl ester] | 0.2 fold |  |  | IC50 (human cytomegalovirus): 130 ± 28 µM |
| CCCCCCCCCCCCCCCC(=O)OC[C@H](COP(=O)(O)OP(=O)(O)CC(=O)O)OC(=O)CCCCCCCCCCCCCCC [DPP--PAA, 1,2dipalmitoyl-snglycero-3-phospho-phosphonoacetate] | 0.3 fold |  |  | times the activity of PAA (human cytomegalovirus): 0.28 times; IC50 (human cytomegalovirus): 80 ± 42 µM |
| CCCCCCCCCCCCCCCCCCOC[C@H](COP(=O)(O)CC(=O)O)OC [MB--PAA, 1O-octadecyl-2-O-methyl-snglycero-3-phosphonoacetic acid] | 36 fold | 0.61 ± 0.76 µM |  |  |
| CCCCCCCCCCCCCCCCCCOC[C@H](COP(=O)(O)CC(=O)OCC)OC [MB--PAA--OEt, 1-O-octadecyl-2-O-methyl-sn-glycero-3-phosphonoacetic acid ethyl ester] | 3.3 fold | 6.7 ± 1.9 µM |  |  |
| CCCCCCCCCCCCCCCCCCOC[C@H](COP(=O)(O)C(=O)O)OC [MB--PFA, 1O-octadecyl-2-O-methyl-snglycero-3-phosphonoformic acid] |  | 0.64 ± 0.14 µM | 72 fold | fold increase in activity (human cytomegalovirus; phosphonoformate series, versus PFA, listed as MB-PFA): 38 fold; times more active than PFA [1]: 72 times; fold increase in activity [1]: 72 fold; IC50 [1, 9]: 0.65 ± 0.21 µM; activity compared with B-PFA ([2]; HIV-1, HT4-6C cells, p = 0.0373 versus B-PFA): more active than B-PFA to a statistically significant degree; fold increase in activity [2]: 104 fold; IC50 [2]: 1.28 ± 0.73 µM |
| O=C(O)CP(=O)(O)O [PAA, phosphonoacetic acid] |  | 22 ± 7 µM |  | selective inhibition of HIV reverse transcriptase [3]: selectively inhibit; toxicity in humans [4]: too toxic for use in humans; selective inhibition of viral DNA polymerase [5]: selectively inhibit the DNA polymerase of many viruses |
| O=C(O)P(=O)(O)O [PFA, phosphonoformic acid, reference compound] |  | 46 ± 19 µM |  | selective inhibition of HIV reverse transcriptase [3]: selectively inhibit; toxicity in humans [4]: substantial toxicity to the kidney and other organs; IC50 ([1]; Human alphaherpesvirus 1, MRC5, 24 h): 47 ± 20 µM; IC50 [2]: 133 ± 54 µM; selective inhibition of viral DNA polymerase [5]: selectively inhibit the DNA polymerase of many viruses |
